Patent US20240102057A1, “METHODS AND COMPOSITIONS USEFUL FOR THE PRODUCTION OF 4-VINYLPHENOL” (THE REGENTS OF THE UNIVERSITY OF CALIFORNIA, priority 2022, published 2024)

How the values were obtained:
E. coli (Ec) = assay: Growth (cell density) in tryptic soy broth supplemented with 4VP or CA; type: cell-based, Escherichia coli; conditions: Ec and Ec PAD, 24 h, FIG. 1c, f
Experimental: (§1) To test whether the PAD strains were able to convert CA to 4VP and evaluate their tolerance to different concentrations of substrate and product, growth experiments were performed in tryptic soy broth supplemented with 0.25 or 0.5 g/L of 4VP, or 1, 5 or 10 g/L of CA. This rich medium was used to provide all the organisms with glucose and amino acids for growth and cell maintenance and allow for continuous PAD protein production during the 4VP production process. The bacterial cell density was measured at the time of inoculation and after 24 h of incubation, and PAD expression was induced at the beginning of the cultivations.
(§2) Cultivations were performed in 48-well flat bottom clear plates (Corning, USA) when an organic overlay was not added, in 48-well FlowerPlates (m2p, Germany) when an overlay was added to rich medium, and in 14 mL round-bottom plastic tubes for lignin liquors with an overlay. Seed cultures of all strains listed in Table 1 were started by inoculating cells from agar plates into tubes with 5 mL of tryptic soy broth and incubating at 30° C. with vigorous shaking for 12 h. For the experiments in the clear plates, inocula were prepared by mixing 1 mL of the seed cultures with 9 mL of fresh tryptic soy broth and incubated for 8 h. […] The optical density at 595 nm was measured using a DTX880 plate reader (Beckton-Coulter, USA).

all tested organisms = assay: as above; type: cell-based, E. coli, B. subtilis, C. glutamicum, B. amyloliquefaciens; conditions: tryptic soy broth with 0.25 or 0.5 g/L 4VP, 24 h
Experimental: as §1, §2

[1] = Distribution between aqueous phase and organic overlay in biphasic cultivations (HPLC); type: physicochemical
Excerpt: One example is the extraction of 4VP from the aqueous phase with octanol in a continuous flow-bed reactor containing immobilized E. coli cells. […] Therefore, we compared the performance of octanol to other mid-chain fatty alcohols with slightly longer alkane chains, decanol and undecanol, when added as overlays to the cultivation media (20% of the aqueous phase volume). To obtain high product concentrations and identify any limitations to the amount of 4VP that can be extracted with the overlays, the four recombinant strains were incubated in the presence of 25 or 75 g/L of CA.
The lignocellulose-derived CA was used to cultivate the 4VP producing strains. […] However, this culture system is not amenable for repeated sampling of aqueous and organic phases to quantify metabolites or for monitoring cell growth in the presence of overlays and dark lignin liquors. Therefore, the incubations in CA-rich liquors were performed in culture tubes in presence of an undecanol overlay, and the OD, CA and 4VP concentrations were measured at 0, 12 and 24 h after inoculation. […]
CA and 4VP were quantified by HPLC in samples taken from the aqueous and organic phases of the cultivations or lignin liquors after diluting with water (aqueous samples) or pure acetonitrile (organic samples). […]

E. coli = conditions: cited from earlier work; for toxicity of organic solvent to E. coli: literature reports [10, 16, 17, 25]
Cg and Cg phdA- strains = assay: Growth (cell density) in tryptic soy broth supplemented with 4VP or CA; type: cell-based, Corynebacterium glutamicum; conditions: 24 h, FIG. 1a, b
Experimental: as §1, §2

all Bacillus species = assay: as above; type: cell-based, Bacillus subtilis, Bacillus amyloliquefaciens; conditions: 24 h, FIG. 1g-i
Experimental: as §1, §2

PAD enzyme = conditions: literature reports [10, 16, 17, 25]; cited from earlier work
microbes = conditions: literature report [3]; cited from earlier work

## C=Cc1ccc(O)cc1 [4VP, 4-vinylphenol]
E. coli (Ec)
  4VP concentration displaying growth inhibition: 0.25 g/L
All tested organisms
  toxicity of 4VP: very toxic
[1]; undecanol overlay, lignin liquors from corn stover residue
  share of product extracted in the organic phase: 97%
E. coli; literature report [12]
  toxicity to E. coli relative to CA: significantly more toxic to E. coli than CA

## O=C(O)/C=C/c1ccc(O)cc1 [CA, p-coumaric acid]
Cg and Cg phdA- strains
  CA concentration in the presence of which strains are able to grow (tolerance): up to 10 g/L
All Bacillus species
  CA concentration above which strains are unable to grow: more than 1 g/L
[1]; octanol, decanol or undecanol overlay (20% of aqueous volume), tryptic soy broth with 25 or 75 g/L CA
  share of CA not consumed found in the aqueous phase: more than 90%

## CCCCCC [hexane]
E. coli
  toxicity of organic solvent to E. coli: significant toxicity
PAD enzyme
  effect of organic solvent on PAD enzyme activity: inhibition

## CCCCCCCCO [octanol]
E. coli
  toxicity of organic solvent to E. coli: significant toxicity
PAD enzyme
  effect of organic solvent on PAD enzyme activity: inhibition
microbes
  toxicity of solvent to microbes: significant toxicity
